Here are results for two compounds from ChEMBL document CHEMBL4840352 (J Med Chem, 2021).

Active and inactive are the calls of the source. The calls are words filed in the database; no cut-off is given here.

Assay [1] concerns Receptor-type tyrosine-protein kinase FLT3 (Homo sapiens), P36888 [UNDEFINED MUTATION]. Nature of the assay: Induction of FLT3-ITD degradation in human MV4-11 cells measured upto 18 hrs by Western blot analysis. The class given is cell-based. The settings on record: time hrs <=18. For orientation: A western blot detects proteins with antibodies after separation by electrophoresis.

In assay [2] the test system is MOLM-13. Nature of the assay: Antiproliferative activity against human MOLM-13 cells incubated for 48 hrs by CCK-8 assay. The class given is functional, cell-based. The settings on record: MOLM-13, 48 h. On the technique in general: Formazan colour is commonly taken as a measure of viable cells.
In assay [3] the test system is MV4-11. Kind of assay: Antiproliferative activity against human MV4-11 cells incubated for 48 hrs by CCK-8 assay. Particulars: MV4-11, 48 h. The class given is functional, cell-based.
Assay [4] has as its target Mast/stem cell growth factor receptor Kit (Homo sapiens) (UniProt P10721). Kind of assay: Inhibition of KIT (unknown origin) at 1000 nM relative to control.
Assay [5] concerns the target Mitogen-activated protein kinase kinase kinase kinase 1 (Homo sapiens) (UniProt Q92918). Kind of assay: Inhibition of HPK1 (unknown origin) at 1000 nM relative to control.
Assay [6] concerns the target CDK7/Cyclin H/MNAT1 (Homo sapiens) (UniProt P51946+P50613+P51948). Kind of assay: Inhibition of CDK7/cyclinH/MAT1 (unknown origin) at 1000 nM relative to control. The class given is protein-complex assay.
Assay [7] has as its target Serine/threonine-protein kinase 4 (Homo sapiens) (UniProt Q13043). Kind of assay: Inhibition of MST1 (unknown origin) at 1000 nM relative to control.
Assay [8] deals with Proto-oncogene tyrosine-protein kinase Src (Homo sapiens) (UniProt P12931). Kind of assay: Inhibition of SRC (unknown origin) at 1000 nM relative to control.
Assay [9] has as its target Maternal embryonic leucine zipper kinase (Homo sapiens) (UniProt Q14680). Kind of assay: Inhibition of MELK (unknown origin) at 1000 nM relative to control.
Assay [10] has as its target Serine/threonine-protein kinase TBK1 (Homo sapiens) (UniProt Q9UHD2). Nature of the assay: Inhibition of TBK1 (unknown origin) at 1000 nM relative to control.
In assay [11] the target is Serine/threonine-protein kinase MARK1 (Homo sapiens) (UniProt Q9P0L2). Kind of assay: Inhibition of MARK1 (unknown origin) at 1000 nM relative to control.
Assay [12] addresses ALK tyrosine kinase receptor (Homo sapiens) (UniProt Q9UM73). Kind of assay: Inhibition of ALK (unknown origin) at 1000 nM relative to control.
For assay [13], the target named is Mitogen-activated protein kinase 1 (Homo sapiens) (UniProt P28482). Kind of assay: Inhibition of MAPK2 (unknown origin) at 1000 nM relative to control.
In assay [14] the target is Tyrosine-protein kinase JAK3 (Homo sapiens) (UniProt P52333). Nature of the assay: Inhibition of JAK3 (unknown origin) at 1000 nM relative to control.
The target in assay [15] is Aurora kinase A (Homo sapiens) (UniProt O14965). Kind of assay: Inhibition of AURORA-A (unknown origin) at 1000 nM relative to control.
Assay [16] has as its target Discoidin domain-containing receptor 2 (Homo sapiens) (UniProt Q16832). Nature of the assay: Inhibition of DDR2 (unknown origin) at 1000 nM relative to control.
The target in assay [17] is Receptor tyrosine-protein kinase erbB-2 (Homo sapiens) (UniProt P04626). Nature of the assay: Inhibition of HER2 (unknown origin) at 1000 nM relative to control.
Assay [18] concerns the target Mitogen-activated protein kinase 8 (Homo sapiens) (UniProt P45983). Kind of assay: Inhibition of JNK1 (unknown origin) at 1000 nM relative to control.
In assay [19] the target is Mitogen-activated protein kinase 1 (Homo sapiens) (UniProt P28482). Nature of the assay: Inhibition of ERK2 (unknown origin) at 1000 nM relative to control.
For assay [20], the target named is Serine/threonine-protein kinase Chk2 (Homo sapiens) (UniProt O96017). Kind of assay: Inhibition of CHK2 (unknown origin) at 1000 nM relative to control.
For assay [21], the target named is Rho-associated protein kinase 1 (Homo sapiens) (UniProt Q13464). Kind of assay: Inhibition of ROCK1 (unknown origin) at 1000 nM relative to control.
Assay [22] deals with Glycogen synthase kinase-3 alpha (Homo sapiens) (UniProt P49840). Kind of assay: Inhibition of GSK3alpha (unknown origin) at 1000 nM relative to control.
Assay [23] deals with Mitogen-activated protein kinase kinase kinase 14 (Homo sapiens) (UniProt Q99558). Nature of the assay: Inhibition of NIK (unknown origin) at 1000 nM relative to control.
The target in assay [24] is Hepatocyte growth factor receptor (Homo sapiens) (UniProt P08581). Kind of assay: Inhibition of C-MET (unknown origin) at 1000 nM relative to control.
Assay [25] addresses Casein kinase I isoform alpha-like (Homo sapiens) (UniProt Q8N752). Kind of assay: Inhibition of CK1A1 (unknown origin) at 1000 nM relative to control.
For assay [26], the target named is RAC-alpha serine/threonine-protein kinase (Homo sapiens) (UniProt P31749). Kind of assay: Inhibition of AKT1 (unknown origin) at 1000 nM relative to control.
Assay [27] relates to MOLM-13. Nature of the assay: Induction of apoptosis in human MOLM-13 cells at 10 nM after 48 hrs by Annexin-V/PI staining based flow cytometry. The class given is functional, cell-based. A general note: Flow cytometry measures light scatter and fluorescence of single cells or particles in a stream.
For assay [28], the system named is MV4-11. Kind of assay: Induction of apoptosis in human MV4-11 cells at 10 nM after 48 hrs by Annexin-V/PI staining based flow cytometry. The class given is functional, cell-based.

Mitogen-activated protein kinase 1 (Homo sapiens), sequence (P28482 whole entry): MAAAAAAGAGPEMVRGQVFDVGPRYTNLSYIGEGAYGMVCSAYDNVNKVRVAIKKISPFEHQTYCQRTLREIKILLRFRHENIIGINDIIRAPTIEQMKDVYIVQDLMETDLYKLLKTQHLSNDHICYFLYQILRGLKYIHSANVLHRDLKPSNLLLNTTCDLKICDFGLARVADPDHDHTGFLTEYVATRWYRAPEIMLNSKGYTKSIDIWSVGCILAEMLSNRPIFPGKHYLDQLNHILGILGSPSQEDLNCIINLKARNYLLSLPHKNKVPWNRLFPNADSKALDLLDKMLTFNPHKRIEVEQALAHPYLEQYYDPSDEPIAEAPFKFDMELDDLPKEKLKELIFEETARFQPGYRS
Discoidin domain-containing receptor 2 (Homo sapiens), sequence (Q16832 whole entry, the tested form may be a part): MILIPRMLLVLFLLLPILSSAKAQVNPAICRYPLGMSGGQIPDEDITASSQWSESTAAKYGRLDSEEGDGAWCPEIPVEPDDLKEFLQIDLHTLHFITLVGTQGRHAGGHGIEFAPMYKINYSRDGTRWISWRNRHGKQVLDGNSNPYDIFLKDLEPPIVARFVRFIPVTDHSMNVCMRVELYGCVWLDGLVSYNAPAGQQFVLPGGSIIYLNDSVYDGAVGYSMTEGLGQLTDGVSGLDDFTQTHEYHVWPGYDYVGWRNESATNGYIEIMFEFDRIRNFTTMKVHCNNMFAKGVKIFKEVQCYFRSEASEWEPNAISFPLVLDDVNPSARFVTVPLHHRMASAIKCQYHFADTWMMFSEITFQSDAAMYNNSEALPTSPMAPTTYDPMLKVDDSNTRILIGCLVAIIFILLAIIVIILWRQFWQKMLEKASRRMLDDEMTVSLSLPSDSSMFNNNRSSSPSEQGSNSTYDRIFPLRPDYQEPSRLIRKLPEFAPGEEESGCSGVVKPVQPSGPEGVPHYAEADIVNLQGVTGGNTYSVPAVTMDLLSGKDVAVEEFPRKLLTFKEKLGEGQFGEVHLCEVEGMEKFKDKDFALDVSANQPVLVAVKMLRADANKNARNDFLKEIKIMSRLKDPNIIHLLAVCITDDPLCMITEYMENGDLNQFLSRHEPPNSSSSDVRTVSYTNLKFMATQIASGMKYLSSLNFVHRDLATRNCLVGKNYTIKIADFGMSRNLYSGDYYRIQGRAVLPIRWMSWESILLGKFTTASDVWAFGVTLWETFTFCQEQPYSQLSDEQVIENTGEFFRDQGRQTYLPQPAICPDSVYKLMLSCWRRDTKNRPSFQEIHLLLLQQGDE
ALK tyrosine kinase receptor (Homo sapiens), sequence (Q9UM73 19-1620 limits assumed): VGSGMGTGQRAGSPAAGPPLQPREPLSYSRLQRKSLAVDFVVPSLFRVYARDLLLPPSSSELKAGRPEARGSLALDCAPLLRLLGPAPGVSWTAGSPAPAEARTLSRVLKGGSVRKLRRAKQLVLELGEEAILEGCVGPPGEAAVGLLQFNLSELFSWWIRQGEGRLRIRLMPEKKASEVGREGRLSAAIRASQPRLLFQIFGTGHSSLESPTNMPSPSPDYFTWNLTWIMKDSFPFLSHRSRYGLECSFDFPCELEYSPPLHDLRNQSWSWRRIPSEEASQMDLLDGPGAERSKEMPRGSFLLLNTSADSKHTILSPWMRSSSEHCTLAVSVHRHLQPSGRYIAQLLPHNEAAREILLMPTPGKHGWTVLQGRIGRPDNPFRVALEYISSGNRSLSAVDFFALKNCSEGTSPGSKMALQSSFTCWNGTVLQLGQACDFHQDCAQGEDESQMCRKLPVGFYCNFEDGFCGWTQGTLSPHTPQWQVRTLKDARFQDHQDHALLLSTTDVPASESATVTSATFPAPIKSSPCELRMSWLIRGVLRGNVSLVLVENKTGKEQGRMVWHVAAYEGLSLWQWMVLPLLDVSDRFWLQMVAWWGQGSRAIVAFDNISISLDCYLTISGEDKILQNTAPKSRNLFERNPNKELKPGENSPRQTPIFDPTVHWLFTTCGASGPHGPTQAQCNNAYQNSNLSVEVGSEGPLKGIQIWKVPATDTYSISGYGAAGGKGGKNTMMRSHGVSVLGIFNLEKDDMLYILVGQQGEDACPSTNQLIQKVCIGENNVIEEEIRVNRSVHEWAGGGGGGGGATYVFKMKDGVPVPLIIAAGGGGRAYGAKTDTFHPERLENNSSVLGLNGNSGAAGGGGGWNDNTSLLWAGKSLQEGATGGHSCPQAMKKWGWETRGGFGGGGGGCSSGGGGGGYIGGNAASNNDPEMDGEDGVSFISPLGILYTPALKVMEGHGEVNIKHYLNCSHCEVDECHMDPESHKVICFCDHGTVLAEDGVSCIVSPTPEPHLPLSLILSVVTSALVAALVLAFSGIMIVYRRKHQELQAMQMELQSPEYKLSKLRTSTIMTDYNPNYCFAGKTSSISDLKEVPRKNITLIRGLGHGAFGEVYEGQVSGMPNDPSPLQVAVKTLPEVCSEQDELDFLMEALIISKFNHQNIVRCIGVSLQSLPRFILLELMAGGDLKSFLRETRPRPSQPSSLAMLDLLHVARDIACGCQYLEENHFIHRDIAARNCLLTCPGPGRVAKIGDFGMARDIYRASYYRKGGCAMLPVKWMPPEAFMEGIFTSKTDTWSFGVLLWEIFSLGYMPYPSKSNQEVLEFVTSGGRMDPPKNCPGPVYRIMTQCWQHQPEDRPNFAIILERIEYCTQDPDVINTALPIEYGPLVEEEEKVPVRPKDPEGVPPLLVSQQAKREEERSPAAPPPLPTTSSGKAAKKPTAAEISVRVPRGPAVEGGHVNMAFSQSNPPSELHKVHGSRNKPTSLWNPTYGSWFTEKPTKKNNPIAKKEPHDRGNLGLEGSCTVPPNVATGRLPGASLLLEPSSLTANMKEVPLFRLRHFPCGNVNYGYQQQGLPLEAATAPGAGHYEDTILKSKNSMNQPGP
Casein kinase I isoform alpha-like (Homo sapiens), sequence (Q8N752 whole entry, canonical isoform): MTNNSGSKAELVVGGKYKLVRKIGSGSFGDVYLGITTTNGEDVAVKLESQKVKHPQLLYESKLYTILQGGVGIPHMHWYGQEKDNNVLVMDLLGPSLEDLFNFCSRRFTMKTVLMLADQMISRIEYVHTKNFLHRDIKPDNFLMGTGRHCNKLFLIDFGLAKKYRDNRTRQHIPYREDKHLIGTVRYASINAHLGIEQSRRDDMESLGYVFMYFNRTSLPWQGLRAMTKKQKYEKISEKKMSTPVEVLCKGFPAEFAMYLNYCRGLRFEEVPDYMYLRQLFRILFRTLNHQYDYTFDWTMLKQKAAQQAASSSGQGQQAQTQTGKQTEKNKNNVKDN
Receptor-type tyrosine-protein kinase FLT3 (Homo sapiens), P36888 [UNDEFINED MUTATION], sequence (P36888 whole entry, looked up, stated change not applied): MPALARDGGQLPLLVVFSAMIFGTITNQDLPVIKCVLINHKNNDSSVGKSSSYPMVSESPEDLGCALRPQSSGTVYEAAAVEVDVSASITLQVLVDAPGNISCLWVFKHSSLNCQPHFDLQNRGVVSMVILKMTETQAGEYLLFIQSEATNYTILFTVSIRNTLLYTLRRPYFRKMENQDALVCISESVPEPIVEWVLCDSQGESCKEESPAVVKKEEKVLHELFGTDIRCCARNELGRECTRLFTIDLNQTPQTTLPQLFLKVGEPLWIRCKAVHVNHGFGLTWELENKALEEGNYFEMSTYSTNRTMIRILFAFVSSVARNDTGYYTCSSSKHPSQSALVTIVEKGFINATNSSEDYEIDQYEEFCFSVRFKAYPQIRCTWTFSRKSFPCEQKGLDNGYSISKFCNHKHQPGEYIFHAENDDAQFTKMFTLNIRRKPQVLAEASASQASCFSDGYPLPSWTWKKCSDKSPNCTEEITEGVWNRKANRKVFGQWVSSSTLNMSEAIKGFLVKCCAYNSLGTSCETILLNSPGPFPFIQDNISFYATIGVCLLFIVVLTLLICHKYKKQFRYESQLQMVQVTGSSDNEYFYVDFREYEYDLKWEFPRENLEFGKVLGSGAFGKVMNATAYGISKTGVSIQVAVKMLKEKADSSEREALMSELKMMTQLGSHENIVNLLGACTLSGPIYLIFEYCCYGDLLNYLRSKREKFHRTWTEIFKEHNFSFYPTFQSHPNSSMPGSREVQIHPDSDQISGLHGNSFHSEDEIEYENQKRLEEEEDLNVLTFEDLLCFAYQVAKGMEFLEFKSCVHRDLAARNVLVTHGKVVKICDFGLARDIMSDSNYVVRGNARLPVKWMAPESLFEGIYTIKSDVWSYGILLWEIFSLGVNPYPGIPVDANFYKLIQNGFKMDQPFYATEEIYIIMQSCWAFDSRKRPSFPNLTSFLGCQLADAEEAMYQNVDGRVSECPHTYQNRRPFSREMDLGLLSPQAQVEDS
Mitogen-activated protein kinase kinase kinase 14 (Homo sapiens), sequence (Q99558 whole entry, looked up): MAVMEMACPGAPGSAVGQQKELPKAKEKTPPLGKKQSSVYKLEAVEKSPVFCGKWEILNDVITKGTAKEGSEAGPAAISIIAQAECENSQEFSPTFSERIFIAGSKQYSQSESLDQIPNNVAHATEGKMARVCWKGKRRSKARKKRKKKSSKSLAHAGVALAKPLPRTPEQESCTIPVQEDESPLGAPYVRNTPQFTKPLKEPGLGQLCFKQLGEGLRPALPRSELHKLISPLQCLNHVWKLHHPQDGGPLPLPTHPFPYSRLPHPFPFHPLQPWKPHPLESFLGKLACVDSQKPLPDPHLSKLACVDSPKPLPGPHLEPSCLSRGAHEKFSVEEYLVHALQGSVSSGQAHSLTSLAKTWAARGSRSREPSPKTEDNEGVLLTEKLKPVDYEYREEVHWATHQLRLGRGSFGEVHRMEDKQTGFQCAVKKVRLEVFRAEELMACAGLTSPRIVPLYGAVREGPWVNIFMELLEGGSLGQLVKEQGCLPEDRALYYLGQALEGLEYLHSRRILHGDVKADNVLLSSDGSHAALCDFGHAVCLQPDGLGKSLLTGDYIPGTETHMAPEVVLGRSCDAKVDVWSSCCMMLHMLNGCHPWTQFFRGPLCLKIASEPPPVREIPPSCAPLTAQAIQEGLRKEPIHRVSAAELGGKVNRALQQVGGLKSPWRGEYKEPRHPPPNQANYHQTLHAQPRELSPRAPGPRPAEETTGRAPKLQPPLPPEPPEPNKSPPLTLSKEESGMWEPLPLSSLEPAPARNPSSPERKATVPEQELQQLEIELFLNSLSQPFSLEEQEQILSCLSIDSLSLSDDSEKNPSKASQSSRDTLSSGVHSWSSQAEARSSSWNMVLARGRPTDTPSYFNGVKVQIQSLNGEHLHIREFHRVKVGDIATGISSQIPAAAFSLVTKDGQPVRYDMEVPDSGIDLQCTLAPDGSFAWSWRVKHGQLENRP

On to `C[C@@H]1C[C@@H]([C@H](O)CC2CC(=O)NC(=O)C2)C(=O)[C@@H](C)C1`, for which the result in assay [1] was inactive.
For the compound `CN1CCN(c2ccc3nc(-c4c(N)c5c(F)cccc5[nH]c4=O)[nH]c3c2)CC1` [DOVITINIB], the IC50 with MOLM-13 [2] worked out at 795 nM; in the assay with MV4-11 [3] it was 184 nM. Also, the inhibition in [4] amounted to 98%; in assay [5], 94%; in assay [6] it was 85%; in [7], 82%; in assay [8], 79%; in assay [9], 70%. Besides, the inhibition in assay [10] was 64%; in [11], 57%; in [12] it was 55%; in assay [13], 54%; in assay [14] it was 54%; in [15], 38%. The inhibition in assay [16] amounted to 38%; in assay [17], 37%; in assay [18], 33%; in assay [19], 31%; in [20], 25%; in [21], 23%. Moreover, the inhibition in assay [22] was 20%; in assay [23], 2%; in assay [24], 14%; in assay [25], 10%; in assay [26] it was 4%. In addition, the outcome in the assay on MOLM-13 [27] and with MV4-11 [28] was inactive.

One may read the IC50 as the concentration that inhibits the measured activity by half. The inhibition is the change of the read-out against control, counted positive when it falls. The low end stands for little suppression, the high end for strong suppression.
